The text below walks through data of ChEMBL document CHEMBL1909046, “DrugMatrix in vitro pharmacology data”.

What is called IC50 is the concentration that inhibits the measured activity by half. The Ki is the equilibrium dissociation constant of an inhibitor or competing ligand from its target.

Chain of Cannabinoid receptor 1 (P21554 whole entry): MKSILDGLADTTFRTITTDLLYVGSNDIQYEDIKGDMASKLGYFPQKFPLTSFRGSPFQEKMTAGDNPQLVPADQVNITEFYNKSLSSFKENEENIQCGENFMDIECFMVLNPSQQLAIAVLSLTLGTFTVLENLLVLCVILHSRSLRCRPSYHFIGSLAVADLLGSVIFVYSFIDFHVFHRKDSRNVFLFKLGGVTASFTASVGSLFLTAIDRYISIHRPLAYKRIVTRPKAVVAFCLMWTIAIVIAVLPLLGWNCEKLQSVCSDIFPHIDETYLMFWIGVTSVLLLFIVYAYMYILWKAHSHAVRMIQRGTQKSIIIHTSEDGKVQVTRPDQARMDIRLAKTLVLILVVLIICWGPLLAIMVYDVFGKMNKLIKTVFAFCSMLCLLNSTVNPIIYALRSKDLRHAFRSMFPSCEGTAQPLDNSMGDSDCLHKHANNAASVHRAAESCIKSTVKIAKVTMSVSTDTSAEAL

One experiment addresses Cannabinoid receptor 1 (Homo sapiens, UniProt P21554).
Assay: not given
Format: cell membranes, Membrane. To be noted: chem-1.
As to `COc1cc(N)nc2[nH]c(-c3ccc(F)cc3)c(-c3ccncc3)c12`, the IC50 result was “Not Active”.
Turning to `CNS(=O)(=O)Cc1ccc2[nH]cc(CCN(C)C)c2c1`, the IC50 entry is listed as “Not Active”.
The same measure, in the same setting: with `CCCc1nn(C)c2c(=O)[nH]c(-c3cc(S(=O)(=O)N4CCN(C)CC4)ccc3OCC)nc12` the entry was “Not Active”; with `COc1ccc(/C=C/C(=O)Nc2ccccc2C(=O)O)cc1OC`, “Not Active”; with `CCOC(N)=O`, “Not Active”.
Take `CC(=O)Nc1nnc(S(N)(=O)=O)s1` [ACETAZOLAMIDE]: the IC50 result is given as “Not Active”.
Consider `O=c1[nH]c2ccccc2n1CCCN1CCC(n2c(=O)[nH]c3cc(Cl)ccc32)CC1` [DOMPERIDONE], for which the 50% inhibitory concentration (IC50) result was “Not Active”.
Turning to `CC1=C(CC(=O)O)c2cc(F)ccc2/C1=C\c1ccc(S(C)(=O)=O)cc1` [EXISULIND], the concentration for half-maximal inhibition (IC50) entry is “Not Active”.
Same read-out and setting: with `CC(C)OC(=O)C(C)(C)Oc1ccc(C(=O)c2ccc(Cl)cc2)cc1` [FENOFIBRATE] the entry was “Not Active”; with `OCCN1CCN(CCCN2c3ccccc3Sc3ccc(C(F)(F)F)cc32)CC1` [FLUPHENAZINE], “Not Active”; with `CN1C2CCCC1CC(NC(=O)c1nn(C)c3ccccc13)C2` (centres undefined) [GRANISETRON], “Not Active”.

System in a further experiment: not listed separately
Nature of the experiment: DRUGMATRIX: Interleukin IL-1 radioligand binding (ligand: [125I] interleukin 1beta). The following applies: nih3t3; Not Active = under 50% inhibition at 10 µM. It counts as cell membranes, Membrane.
For the compound `COc1cc(N)nc2[nH]c(-c3ccc(F)cc3)c(-c3ccncc3)c12`, the IC50 result was “Not Active” and the Ki result is “Not Active”.
Take `CNS(=O)(=O)Cc1ccc2[nH]cc(CCN(C)C)c2c1`: the IC50 entry is “Not Active” and the Ki result is on record as “Not Active”.
In the case of `CCCc1nn(C)c2c(=O)[nH]c(-c3cc(S(=O)(=O)N4CCN(C)CC4)ccc3OCC)nc12`, the IC50 result is reported as “Not Active” and the inhibition constant (Ki) entry is reported as “Not Active”.
As for `COc1ccc(/C=C/C(=O)Nc2ccccc2C(=O)O)cc1OC`, the half-inhibitory concentration (IC50) entry is recorded as “Not Active” and the inhibition constant Ki entry is recorded as “Not Active”.
On to `CCOC(N)=O`, for which the half-inhibitory concentration (IC50) entry is on record as “Not Active” and the Ki result is “Not Active”.
As to `CC1=C(CC(=O)O)c2cc(F)ccc2/C1=C\c1ccc(S(C)(=O)=O)cc1` [EXISULIND], the 50% inhibitory concentration (IC50) result is recorded as “Not Active” and the inhibitory constant (Ki) entry is given as “Not Active”.

A further experiment deals with Mu-type opioid receptor (Homo sapiens, UniProt P35372). Nature of the experiment: DRUGMATRIX: Opiate mu (OP3, MOP) radioligand binding (ligand: [3H] Diprenorphine). Format: cell membranes, CHO-K1, Membrane. To be noted: Not Active = under 50% inhibition at 10 µM.
Chain of Mu-type opioid receptor (P35372 whole entry): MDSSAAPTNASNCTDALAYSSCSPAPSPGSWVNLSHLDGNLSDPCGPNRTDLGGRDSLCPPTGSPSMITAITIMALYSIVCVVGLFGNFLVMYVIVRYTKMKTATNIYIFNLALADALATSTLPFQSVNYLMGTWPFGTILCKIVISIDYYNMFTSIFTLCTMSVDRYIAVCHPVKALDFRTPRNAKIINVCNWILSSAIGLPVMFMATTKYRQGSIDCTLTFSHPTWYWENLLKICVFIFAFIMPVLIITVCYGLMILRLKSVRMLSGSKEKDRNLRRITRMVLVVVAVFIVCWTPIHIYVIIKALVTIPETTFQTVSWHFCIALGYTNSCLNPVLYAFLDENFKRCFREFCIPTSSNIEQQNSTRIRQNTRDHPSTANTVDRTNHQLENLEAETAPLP
For the compound `OCCN1CCN(CCCN2c3ccccc3Sc3ccc(C(F)(F)F)cc32)CC1` [FLUPHENAZINE], the affinity, expressed as Ki, was 8.42 µM.

The same experiment, now with this note: Not Active = under 50% inhibition at 10 µM; read-out: IC50.
Take `OCCN1CCN(CCCN2c3ccccc3Sc3ccc(C(F)(F)F)cc32)CC1` [FLUPHENAZINE]: the concentration for half-maximal inhibition (IC50) is 20.7 µM.

Still in this experiment, the particulars now being: cho-k1; Not Active = under 50% inhibition at 10 µM.
As to `COc1cc(N)nc2[nH]c(-c3ccc(F)cc3)c(-c3ccncc3)c12`, the half-inhibitory concentration (IC50) entry is “Not Active”.
Same read-out and setting: the result for `CNS(=O)(=O)Cc1ccc2[nH]cc(CCN(C)C)c2c1` reads “Not Active”.
On the same count and under the same terms, with `CCCc1nn(C)c2c(=O)[nH]c(-c3cc(S(=O)(=O)N4CCN(C)CC4)ccc3OCC)nc12` the entry was “Not Active”.
On the same count and under the same terms, with `COc1ccc(/C=C/C(=O)Nc2ccccc2C(=O)O)cc1OC` the entry was “Not Active”.
With `CCOC(N)=O`, the IC50 result is “Not Active”.
Same read-out and setting: with `CC(=O)Nc1nnc(S(N)(=O)=O)s1` [ACETAZOLAMIDE] the entry was “Not Active”; with `CC1=C(CC(=O)O)c2cc(F)ccc2/C1=C\c1ccc(S(C)(=O)=O)cc1` [EXISULIND], “Not Active”.
Consider `CC(C)OC(=O)C(C)(C)Oc1ccc(C(=O)c2ccc(Cl)cc2)cc1` [FENOFIBRATE], for which the IC50 entry is recorded as “Not Active”.
Same read-out and setting: the result for `CN1C2CCCC1CC(NC(=O)c1nn(C)c3ccccc13)C2` (centres undefined) [GRANISETRON] reads “Not Active”.

For another experiment, the target named is Platelet-activating factor receptor (Homo sapiens, UniProt P25105). Nature of the experiment: biochemical. Format: tissue-based. To be noted: platelet. Note: in other assays of this panel Not Active means under 50% inhibition at 10 µM.
Chain of Platelet-activating factor receptor (P25105 whole entry): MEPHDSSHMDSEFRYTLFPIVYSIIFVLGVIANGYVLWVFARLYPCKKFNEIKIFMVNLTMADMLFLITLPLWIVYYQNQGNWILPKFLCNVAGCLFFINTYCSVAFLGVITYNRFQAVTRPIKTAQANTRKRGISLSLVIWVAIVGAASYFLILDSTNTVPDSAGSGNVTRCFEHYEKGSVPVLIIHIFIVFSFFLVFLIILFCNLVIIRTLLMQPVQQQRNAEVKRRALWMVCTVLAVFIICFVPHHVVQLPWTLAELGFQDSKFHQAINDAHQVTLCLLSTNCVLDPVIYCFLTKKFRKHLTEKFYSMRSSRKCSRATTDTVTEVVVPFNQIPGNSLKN
With `COc1cc(N)nc2[nH]c(-c3ccc(F)cc3)c(-c3ccncc3)c12`, the IC50 entry was “Not Active”.
On the same count and under the same terms, the result for `CNS(=O)(=O)Cc1ccc2[nH]cc(CCN(C)C)c2c1` reads “Not Active”.
For `CCCc1nn(C)c2c(=O)[nH]c(-c3cc(S(=O)(=O)N4CCN(C)CC4)ccc3OCC)nc12`, the concentration for half-maximal inhibition (IC50) result is “Not Active”.
On the same count and under the same terms, the result for `COc1ccc(/C=C/C(=O)Nc2ccccc2C(=O)O)cc1OC` reads “Not Active”.
As to `CCOC(N)=O`, the IC50 result is given as “Not Active”.
Same read-out and setting: the result for `CC(=O)Nc1nnc(S(N)(=O)=O)s1` [ACETAZOLAMIDE] reads “Not Active”.
On the same count and under the same terms, with `O=c1[nH]c2ccccc2n1CCCN1CCC(n2c(=O)[nH]c3cc(Cl)ccc32)CC1` [DOMPERIDONE] the entry was “Not Active”.
On the same count and under the same terms, with `CC1=C(CC(=O)O)c2cc(F)ccc2/C1=C\c1ccc(S(C)(=O)=O)cc1` [EXISULIND] the entry was “Not Active”.
Regarding `CC(C)OC(=O)C(C)(C)Oc1ccc(C(=O)c2ccc(Cl)cc2)cc1` [FENOFIBRATE], the IC50 entry is “Not Active”.
Consider `OCCN1CCN(CCCN2c3ccccc3Sc3ccc(C(F)(F)F)cc32)CC1` [FLUPHENAZINE], for which the IC50 result was “Not Active”.
`CN1C2CCCC1CC(NC(=O)c1nn(C)c3ccccc13)C2` (centres undefined) [GRANISETRON]: the IC50 result was “Not Active”.

The target in another experiment is 5-hydroxytryptamine receptor 6 (Homo sapiens, UniProt P50406). Note: in other assays of this panel Not Active means under 50% inhibition at 10 µM.
Chain of 5-hydroxytryptamine receptor 6 (P50406 whole entry): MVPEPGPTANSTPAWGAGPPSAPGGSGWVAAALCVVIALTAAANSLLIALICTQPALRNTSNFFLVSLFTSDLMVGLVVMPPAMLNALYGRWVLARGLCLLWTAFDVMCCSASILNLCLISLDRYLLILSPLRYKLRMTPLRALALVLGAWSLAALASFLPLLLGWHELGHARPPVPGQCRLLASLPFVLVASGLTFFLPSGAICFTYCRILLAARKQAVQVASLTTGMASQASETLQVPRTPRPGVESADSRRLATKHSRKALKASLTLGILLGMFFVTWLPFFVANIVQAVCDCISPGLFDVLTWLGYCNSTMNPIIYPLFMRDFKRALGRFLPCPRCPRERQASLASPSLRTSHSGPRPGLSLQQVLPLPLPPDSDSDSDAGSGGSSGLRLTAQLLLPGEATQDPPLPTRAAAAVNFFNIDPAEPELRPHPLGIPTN
Assay: not given
It counts as cell membranes, HeLa, Membrane. To be noted: hela.
For `COc1cc(N)nc2[nH]c(-c3ccc(F)cc3)c(-c3ccncc3)c12`, the IC50 result is given as “Not Active”.
Consider `CNS(=O)(=O)Cc1ccc2[nH]cc(CCN(C)C)c2c1`, for which the IC50 entry is listed as “Not Active”.
In the case of `CCCc1nn(C)c2c(=O)[nH]c(-c3cc(S(=O)(=O)N4CCN(C)CC4)ccc3OCC)nc12`, the IC50 result is reported as “Not Active”.
Turning to `COc1ccc(/C=C/C(=O)Nc2ccccc2C(=O)O)cc1OC`, the IC50 result is “Not Active”.
The same measure, in the same setting: the result for `CCOC(N)=O` reads “Not Active”.
Consider `CC(=O)Nc1nnc(S(N)(=O)=O)s1` [ACETAZOLAMIDE], for which the half-maximal inhibitory concentration (IC50) entry was “Not Active”.
The same measure, in the same setting: the result for `O=c1[nH]c2ccccc2n1CCCN1CCC(n2c(=O)[nH]c3cc(Cl)ccc32)CC1` [DOMPERIDONE] reads “Not Active”.
Consider `CC1=C(CC(=O)O)c2cc(F)ccc2/C1=C\c1ccc(S(C)(=O)=O)cc1` [EXISULIND], for which the IC50 result is “Not Active”.
With `CC(C)OC(=O)C(C)(C)Oc1ccc(C(=O)c2ccc(Cl)cc2)cc1` [FENOFIBRATE], the IC50 entry is on record as “Not Active”.
For `CN1C2CCCC1CC(NC(=O)c1nn(C)c3ccccc13)C2` (centres undefined) [GRANISETRON], the IC50 entry was “Not Active”.

Staying with this experiment, now noted: read-out: IC50.
Consider `OCCN1CCN(CCCN2c3ccccc3Sc3ccc(C(F)(F)F)cc32)CC1` [FLUPHENAZINE], for which the IC50 was 0.052 µM.

Staying with this experiment, now noted: read-out: Ki.
As for `OCCN1CCN(CCCN2c3ccccc3Sc3ccc(C(F)(F)F)cc32)CC1` [FLUPHENAZINE], the Ki stood at 0.024 µM.

A further experiment deals with Melanocortin receptor 5 (Homo sapiens, UniProt P33032).
Chain of Melanocortin receptor 5 (P33032 whole entry): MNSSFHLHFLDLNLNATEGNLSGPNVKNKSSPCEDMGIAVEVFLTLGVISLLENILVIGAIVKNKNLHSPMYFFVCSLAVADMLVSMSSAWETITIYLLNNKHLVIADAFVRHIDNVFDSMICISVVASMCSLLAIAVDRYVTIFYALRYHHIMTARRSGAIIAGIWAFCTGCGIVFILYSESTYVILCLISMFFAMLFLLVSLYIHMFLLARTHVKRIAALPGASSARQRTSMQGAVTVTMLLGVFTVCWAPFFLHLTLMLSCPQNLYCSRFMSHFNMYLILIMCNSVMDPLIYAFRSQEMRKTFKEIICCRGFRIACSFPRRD
Assay: not given
Format: cell membranes, HEK293, Membrane. To be noted: hek293.
Take `COc1cc(N)nc2[nH]c(-c3ccc(F)cc3)c(-c3ccncc3)c12`: the IC50 entry is “Not Active”.
Still for that read-out and setting: the result for `CNS(=O)(=O)Cc1ccc2[nH]cc(CCN(C)C)c2c1` reads “Not Active”; that for `CCCc1nn(C)c2c(=O)[nH]c(-c3cc(S(=O)(=O)N4CCN(C)CC4)ccc3OCC)nc12`, “Not Active”.
Same read-out and setting: the result for `COc1ccc(/C=C/C(=O)Nc2ccccc2C(=O)O)cc1OC` reads “Not Active”; that for `CCOC(N)=O`, “Not Active”; that for `CC(=O)Nc1nnc(S(N)(=O)=O)s1` [ACETAZOLAMIDE], “Not Active”.
Same read-out and setting: the result for `O=c1[nH]c2ccccc2n1CCCN1CCC(n2c(=O)[nH]c3cc(Cl)ccc32)CC1` [DOMPERIDONE] reads “Not Active”; that for `CC1=C(CC(=O)O)c2cc(F)ccc2/C1=C\c1ccc(S(C)(=O)=O)cc1` [EXISULIND], “Not Active”.
As for `CC(C)OC(=O)C(C)(C)Oc1ccc(C(=O)c2ccc(Cl)cc2)cc1` [FENOFIBRATE], the IC50 result is “Not Active”.
The same measure, in the same setting: with `CN1C2CCCC1CC(NC(=O)c1nn(C)c3ccccc13)C2` (centres undefined) [GRANISETRON] the entry was “Not Active”.

Still in this experiment, the particulars now being: read-out: IC50.
`OCCN1CCN(CCCN2c3ccccc3Sc3ccc(C(F)(F)F)cc32)CC1` [FLUPHENAZINE]: the half-maximal inhibitory concentration (IC50) stood at 9.52 µM.

The same experiment, now with this note: read-out: Ki.
Consider `OCCN1CCN(CCCN2c3ccccc3Sc3ccc(C(F)(F)F)cc32)CC1` [FLUPHENAZINE], for which the Ki stood at 8.93 µM.
